Data published in ChEMBL document CHEMBL3885881, “DrugMatrix”.

Species: Rattus norvegicus
Assay: DrugMatrix - Regimen: Daily Repeat
Assay type: toxicity, organism-based, Sprague-Dawley
Design: regimen Daily Repeat, gender Male, age 6-8 weeks
Settings: in vivo, po, route oral GAVAGE, vehicle 100 % WATER; for ABSOLUTE BASOPHIL / ABSOLUTE EOSINOPHIL / ABSOLUTE LYMPHOCYTE / ABSOLUTE MONOCYTE / ABSOLUTE SEGMENTED NEUTROPHIL / BASOPHIL / EOSINOPHIL / ERYTHROCYTE COUNT / HEMATOCRIT / HEMOGLOBIN / LEUKOCYTE COUNT / LYMPHOCYTE / MEAN CORPUSCULAR HEMOGLOBIN / MEAN CORPUSCULAR HEMOGLOBIN CONCENTRATION / MEAN CORPUSCULAR VOLUME / MONOCYTE / NEUTROPHIL / NUCLEATED RED BLOOD CELLS / PLATELET COUNT: tissue Blood; for ALANINE AMINOTRANSFERASE / ALBUMIN / ALKALINE PHOSPHATASE / ASPARTATE AMINOTRANSFERASE / BLOOD UREA NITROGEN / CARBON DIOXIDE / CHLORIDE / CHOLESTEROL / CREATINE PHOSPHOKINASE / CREATININE / GLUCOSE / LACTATE DEHYDROGENASE / LIPASE / PHOSPHORUS / POTASSIUM / SODIUM / TOTAL BILIRUBIN / TOTAL PROTEIN / URIC ACID: tissue Plasma
[1] = 120 mg/kg, 72 h, dose level Low, time 3 day
[2] = 120 mg/kg, 120 h, dose level Low, time 5 day
[3] = 1200 mg/kg, 72 h, dose level High, time 3 day
[4] = 1200 mg/kg, 120 h, dose level High, time 5 day

For O=C(O)CNCP(=O)(O)O [GLYPHOSATE], the “ABSOLUTE BASOPHIL” value [1] was 0 CELLS/uL, the “ABSOLUTE EOSINOPHIL” value [1] was 153 CELLS/uL and the “ABSOLUTE LYMPHOCYTE” value [1] was 11957 CELLS/uL. For the same molecule, the “ABSOLUTE MONOCYTE” value [1] was 0 CELLS/uL, the “ABSOLUTE SEGMENTED NEUTROPHIL” value [1] was 890 CELLS/uL and the BASOPHIL [1] was 0%. For the same molecule, the EOSINOPHIL [1] was 1.33%, the “ERYTHROCYTE COUNT” value [1] was 5.56 x10E6/uL and the HEMATOCRIT [1] was 35.93%. The HEMOGLOBIN [1] was 13.4 G/DL, the “LEUKOCYTE COUNT” value [1] was 13 x10E3/uL and the LYMPHOCYTE [1] was 92%. For the same molecule, the “MEAN CORPUSCULAR HEMOGLOBIN” value [1] was 24.1 pg, the “MEAN CORPUSCULAR HEMOGLOBIN CONCENTRATION” value [1] was 37.3 G/DL and the “MEAN CORPUSCULAR VOLUME” value [1] was 64.57 fL. For the same molecule, the MONOCYTE [1] was 0%, the NEUTROPHIL [1] was 6.67% and the “NUCLEATED RED BLOOD CELLS” value [1] was 0 /100WBC. The “PLATELET COUNT” value [1] was 1067 x10E3/uL, the “ALANINE AMINOTRANSFERASE” value [1] was 56 u/L and the ALBUMIN [1] was 4.13 G/DL. For the same molecule, the “ALKALINE PHOSPHATASE” value [1] was 286.67 u/L, the “ASPARTATE AMINOTRANSFERASE” value [1] was 100.67 u/L and the “BLOOD UREA NITROGEN” value [1] was 15 mg/dL. For the same molecule, the “CARBON DIOXIDE” value [1] was 24.67 mmol/L, the CHLORIDE [1] was 103.33 MEQ/L and the CHOLESTEROL [1] was 75 mg/dL. For the same molecule, the “CREATINE PHOSPHOKINASE” value [1] was 1135.33 u/L, the CREATININE [1] was 0.29 mg/dL and the GLUCOSE [1] was 198.67 mg/dL. For the same molecule, the “LACTATE DEHYDROGENASE” value [1] was 150.67 u/L, the LIPASE [1] was 8 u/L and the PHOSPHORUS [1] was 14.7 mg/dL. The POTASSIUM [1] was 6.43 MEQ/L, the SODIUM [1] was 145.93 MEQ/L and the “TOTAL BILIRUBIN” value [1] was 0.27 mg/dL. For the same molecule, the “TOTAL PROTEIN” value [1] was 5.87 G/DL, the “URIC ACID” value [1] was 1.73 mg/dL and the “ABSOLUTE BASOPHIL” value [2] was 0 CELLS/uL. The “ABSOLUTE EOSINOPHIL” value [2] was 327.33 CELLS/uL, the “ABSOLUTE LYMPHOCYTE” value [2] was 13510 CELLS/uL and the “ABSOLUTE MONOCYTE” value [2] was 0 CELLS/uL. For the same molecule, the “ABSOLUTE SEGMENTED NEUTROPHIL” value [2] was 1496 CELLS/uL, the BASOPHIL [2] was 0% and the EOSINOPHIL [2] was 2%. For the same molecule, the “ERYTHROCYTE COUNT” value [2] was 5.7 x10E6/uL, the HEMATOCRIT [2] was 34.73% and the HEMOGLOBIN [2] was 13.27 G/DL. The “LEUKOCYTE COUNT” value [2] was 15.33 x10E3/uL, the LYMPHOCYTE [2] was 88.33% and the “MEAN CORPUSCULAR HEMOGLOBIN” value [2] was 23.27 pg. The “MEAN CORPUSCULAR HEMOGLOBIN CONCENTRATION” value [2] was 38.23 G/DL, the “MEAN CORPUSCULAR VOLUME” value [2] was 60.93 fL and the MONOCYTE [2] was 0%. The NEUTROPHIL [2] was 9.67%, the “NUCLEATED RED BLOOD CELLS” value [2] was 0 /100WBC and the “PLATELET COUNT” value [2] was 1299.33 x10E3/uL. For the same molecule, the “ALANINE AMINOTRANSFERASE” value [2] was 51.33 u/L, the ALBUMIN [2] was 4.47 G/DL and the “ALKALINE PHOSPHATASE” value [2] was 337.33 u/L. For the same molecule, the “ASPARTATE AMINOTRANSFERASE” value [2] was 87.33 u/L, the “BLOOD UREA NITROGEN” value [2] was 15.67 mg/dL and the “CARBON DIOXIDE” value [2] was 25 mmol/L. The CHLORIDE [2] was 103.67 MEQ/L, the CHOLESTEROL [2] was 64 mg/dL and the “CREATINE PHOSPHOKINASE” value [2] was 252 u/L. For the same molecule, the CREATININE [2] was 0.19 mg/dL, the GLUCOSE [2] was 168.33 mg/dL and the “LACTATE DEHYDROGENASE” value [2] was 300.67 u/L. The LIPASE [2] was 8.67 u/L, the PHOSPHORUS [2] was 12.53 mg/dL and the POTASSIUM [2] was 6.55 MEQ/L. For the same molecule, the SODIUM [2] was 145.77 MEQ/L, the “TOTAL BILIRUBIN” value [2] was 0.13 mg/dL and the “TOTAL PROTEIN” value [2] was 6.1 G/DL. The “URIC ACID” value [2] was 1.9 mg/dL, the “ABSOLUTE BASOPHIL” value [3] was 0 CELLS/uL and the “ABSOLUTE EOSINOPHIL” value [3] was 430 CELLS/uL. For the same molecule, the “ABSOLUTE LYMPHOCYTE” value [3] was 12770 CELLS/uL, the “ABSOLUTE MONOCYTE” value [3] was 0 CELLS/uL and the “ABSOLUTE SEGMENTED NEUTROPHIL” value [3] was 3000 CELLS/uL. For the same molecule, the BASOPHIL [3] was 0%, the EOSINOPHIL [3] was 2.67% and the “ERYTHROCYTE COUNT” value [3] was 5.53 x10E6/uL. For the same molecule, the HEMATOCRIT [3] was 35%, the HEMOGLOBIN [3] was 13.4 G/DL and the “LEUKOCYTE COUNT” value [3] was 16.2 x10E3/uL. The LYMPHOCYTE [3] was 79.33%, the “MEAN CORPUSCULAR HEMOGLOBIN” value [3] was 24.3 pg and the “MEAN CORPUSCULAR HEMOGLOBIN CONCENTRATION” value [3] was 38.3 G/DL. For the same molecule, the “MEAN CORPUSCULAR VOLUME” value [3] was 63.37 fL, the MONOCYTE [3] was 0% and the NEUTROPHIL [3] was 18%. The “NUCLEATED RED BLOOD CELLS” value [3] was 0 /100WBC, the “PLATELET COUNT” value [3] was 1325.33 x10E3/uL and the “ALANINE AMINOTRANSFERASE” value [3] was 51.33 u/L. The ALBUMIN [3] was 4.17 G/DL, the “ALKALINE PHOSPHATASE” value [3] was 418.33 u/L and the “ASPARTATE AMINOTRANSFERASE” value [3] was 78.33 u/L. For the same molecule, the “BLOOD UREA NITROGEN” value [3] was 15.33 mg/dL, the “CARBON DIOXIDE” value [3] was 27.33 mmol/L and the CHLORIDE [3] was 101 MEQ/L. The CHOLESTEROL [3] was 60.33 mg/dL, the “CREATINE PHOSPHOKINASE” value [3] was 226.67 u/L and the CREATININE [3] was 0.19 mg/dL. For the same molecule, the GLUCOSE [3] was 167 mg/dL, the “LACTATE DEHYDROGENASE” value [3] was 154.67 u/L and the LIPASE [3] was 8.67 u/L. For the same molecule, the PHOSPHORUS [3] was 13.27 mg/dL, the POTASSIUM [3] was 6.4 MEQ/L and the SODIUM [3] was 145.67 MEQ/L. For the same molecule, the “TOTAL BILIRUBIN” value [3] was 0.1 mg/dL, the “TOTAL PROTEIN” value [3] was 5.83 G/DL and the “URIC ACID” value [3] was 1.47 mg/dL. The “ABSOLUTE BASOPHIL” value [4] was 0 CELLS/uL, the “ABSOLUTE EOSINOPHIL” value [4] was 318.67 CELLS/uL and the “ABSOLUTE LYMPHOCYTE” value [4] was 13433.33 CELLS/uL. For the same molecule, the “ABSOLUTE MONOCYTE” value [4] was 0 CELLS/uL, the “ABSOLUTE SEGMENTED NEUTROPHIL” value [4] was 2014.67 CELLS/uL and the BASOPHIL [4] was 0%. The EOSINOPHIL [4] was 2%, the “ERYTHROCYTE COUNT” value [4] was 5.83 x10E6/uL and the HEMATOCRIT [4] was 36%. The HEMOGLOBIN [4] was 13.47 G/DL, the “LEUKOCYTE COUNT” value [4] was 15.77 x10E3/uL and the LYMPHOCYTE [4] was 84.67%. The “MEAN CORPUSCULAR HEMOGLOBIN” value [4] was 23.1 pg, the “MEAN CORPUSCULAR HEMOGLOBIN CONCENTRATION” value [4] was 37.47 G/DL and the “MEAN CORPUSCULAR VOLUME” value [4] was 61.7 fL. For the same molecule, the MONOCYTE [4] was 0%, the NEUTROPHIL [4] was 13.33% and the “NUCLEATED RED BLOOD CELLS” value [4] was 0 /100WBC. For the same molecule, the “PLATELET COUNT” value [4] was 1271.67 x10E3/uL, the “ALANINE AMINOTRANSFERASE” value [4] was 65.33 u/L and the ALBUMIN [4] was 4.43 G/DL. For the same molecule, the “ALKALINE PHOSPHATASE” value [4] was 391.33 u/L, the “ASPARTATE AMINOTRANSFERASE” value [4] was 82.33 u/L and the “BLOOD UREA NITROGEN” value [4] was 16.33 mg/dL. For the same molecule, the “CARBON DIOXIDE” value [4] was 27.33 mmol/L, the CHLORIDE [4] was 102.67 MEQ/L and the CHOLESTEROL [4] was 68.67 mg/dL. For the same molecule, the “CREATINE PHOSPHOKINASE” value [4] was 204.33 u/L, the CREATININE [4] was 0.15 mg/dL and the GLUCOSE [4] was 177 mg/dL. For the same molecule, the “LACTATE DEHYDROGENASE” value [4] was 87 u/L, the LIPASE [4] was 9 u/L and the PHOSPHORUS [4] was 12.33 mg/dL. The POTASSIUM [4] was 6.56 MEQ/L, the SODIUM [4] was 147.4 MEQ/L and the “TOTAL BILIRUBIN” value [4] was 0.13 mg/dL. The “TOTAL PROTEIN” value [4] was 6.03 G/DL and the “URIC ACID” value [4] was 1.9 mg/dL.
